Measured values as given in patent publication US7727511B2, “Agents for imaging soluble a-beta” (priority 2003, dated 2010).
Entries after “also recorded” stand apart in the source; their conditions may differ.

Assays:
[1] = target: T1, beta-amyloid 1-42 oligomer (20% biotin) (Homo sapiens, UniProt P05067); assay: Scintillation proximity assay (SPA), direct/saturation binding of tritium labeled probe to soluble oligomers
T1 construct: 12 μg beta-amyloid 1-42 oligomer (20% biotin); purchased Bachem H-5642; host or cells: synthetic peptide
Description: To prepare soluble oligomer, the film was dissolved in appropriate amount of dry DMSO (Sigma), and Ham's F12 media (Biosource) or PBS (Sigma, D8537) was added and incubated at 4° C. for 24 hours (final concentration of 200 uM or 0.9 mg/mL beta-amyloid in 2% DMSO). The tube containing the soluble oligomers was centrifuged at 13,000 rpm for 5 mins, and its supernatant was transferred to a clean tube.
For SPA and atomic force microscopy (AFM) experiments, preparations of soluble oligomers and fibrils contained 20% biotinylated beta-amyloid 1-42 and 1-40, respectively (H-5642, H-5914, Bachem).
Lyophilized Streptavidin-Ysi beads (GE Healthcare) were reconstituted to 100 mg/mL in deioniozed water, and then further diluted in deionized water to give a suspension containing 0.25 mg/10 μl water. Unlabeled 49b and other benzofuran probes were dissolved in DMSO to give a final stock concentration of 15 mM.
For the saturation-binding assay, isotopic dilution of radiolabeled 49b with unlabeled 49b was performed. ^3H-49b was added to 500 uM of unlabeled 49b to a final concentration of 50 μCi/mL ^3H-49b. The probe solution was then serially diluted in PBS to give six solutions giving 6.6, 13.1, 26.3, 52.5, 105, or 210 uM in the final assay well. Each concentration of the probe solution was incubated with 12 μg beta-amyloid 1-42 oligomer (20% biotin) or 1-40 (20% biotin) fibrils in a total volume of 90 μl. Assays were incubated at room temp for 2 hrs before addition of 10 μL YSi-streptavidin (0.25 mg) SPA bead. Assays were set-up in triplicate in 96-well NBS plates (Costar). Assays were incubated overnight and counted the following morning. […] Assay conditions were the same as described in saturation binding assay.
Data analyses were performed using Sigma Plot or GraphPad Prism® version 4. Curves were fitted using non-linear regression. KD values and IC50 values were estimated from the binding curves.
A direct binding assay using tritium labeled 49b was performed against oligomers or fibrils by scintillation proximity assay (SPA). Beta-amyloid containing 20% biotin and tritiated 49b were incubated in solution for two hours prior to addition of the Ysi-Streptavidin beads.

[2] = target: T2, beta-amyloid soluble oligomers (Homo sapiens, UniProt P05067); assay: Ex vivo fluorescent binding assay, pre-formed soluble oligomers on naive rat brain sections; conditions: 50 μM probe, naive rat brain section, fluorescence microscopy
T2 construct: 1 mg of human beta-amyloid 1-42 (H-5642, Bachem); purchased Bachem H-5642; host or cells: synthetic peptide
Description: A. 1 mg of human beta-amyloid 1-42 (H-5642, Bachem) and 500 uL of 1,1,1,3,3,3 hexafluoro-2-propanol (HFIP) (Aldrich) were chilled in separate bottles on ice for 30 mins. Cold beta-amyloid 1-42 was solubilized with cold HFIP. The mixture was incubated for 1 hr at room temperature until it turned clear. The resulting solution was then dried to a film under vacuum. The film was dissolved again in cold HFIP and incubated another 1 hr at room temperature. The resulting solution was separated into aliquots in several microcentrifuge tubes. HFIP was removed under vacuum, and the films were stored at −20° C. until use. […]
(§1) A 1/100th dilution of the secondary antibody Alexa Fluor 594-goat anti-mouse IgG (Molecular Probes) in PBS was applied onto the slides, and incubated at room temperature for 1.5 hours. […] Microscopic examination and imaging was performed using a Leica wide-field fluorescence microscope using filter cube A (band pass 340-380 nm with a 400 nm dichroic mirror and a long pass 400 nm suppression filter) for 49b, cube E4 (band pass 436 nm with 455 dichroic mirror and a long pass 470 nm suppression filter) for Thioflavin T, and TX2 (band pass 520-600 nm with 595 nm dichroic mirror and 645/75 band pass suppression filter) for 6E10 immunostaining. […]

[3] = target: T3, beta-amyloid fibrils (Homo sapiens, UniProt P05067); assay: Ex vivo fluorescent binding assay, pre-formed fibrils on naive rat brain sections; conditions: 50 μM probe, naive rat brain section, fluorescence microscopy
T3 construct: Lyophilized human beta-amyloid 1-40 peptide (Catalog number H-1194, Bachem); purchased Bachem H-1194; host or cells: synthetic peptide
Description: B. Insoluble A-beta (1-40) fibril formation: Lyophilized human beta-amyloid 1-40 peptide (Catalog number H-1194, Bachem) was solubilized with HFIP to produce a dry clear film following the process described above for beta-amyloid 1-42. The clear film of beta-amyloid 1-40 was diluted with distilled water to achieve a 6 mg/mL concentration. […] The clear solution was diluted to 1 mg/mL with PBS, pH 7.4 to obtain a final concentration of 1 mg/mL beta-amyloid 1-40, and then incubated at 37° C. on an orbital shaker at 200 RPM for 4 days. A cloudy solution was produced, and the fibril production was confirmed by measuring changes in fluorescence of Thioflavin T, as well as by atomic force microscopy and transmission electron microscopy. […]
as §1

[4] = tested on: beta-amyloid in PDAPP mouse brain sections; assay: Histochemical staining on PDAPP transgenic mouse brain sections; format: binding
Description: 3-month old and 24-month old PDAPP mouse brains were obtained from Eli Lilly (Indianapolis, Ind.). Fresh frozen 30 micron sections of the brains were fixed in 10% formalin. For 49b, or Thioflavin S staining, 1 mM stock solutions of 49b and Thioflavin S were prepared in 50% ethanol. The probes were diluted to 25 μM in 50% ethanol, and then applied onto the PDAPP brain sections. The slides were incubated in a humid chamber at room temperature for 1 hr. The slides were washed three times with PBS and mounting medium (Molecular Probes) was added. The slides were incubated at least 4-6 hours before imaging. For the carbonate pre-treatment of the brain sections, formalin-fixed sections were incubated with 100 μL of carbonate buffer containing 0.025 M sodium chloride and 0.1 M sodium carbonate for 45 mins at 37° C. The slides were washed three times with PBS, then 49b or Thioflavin S were applied on the slides as described above. Microscopic examination and imaging was performed using a Leica wide-field fluorescence microscope using filter cube A for 49b and cube E4 for Thioflavin S. Co-staining of the probes with 6E10 anti-beta-amyloid antibody in the PDAPP brain sections was described in the ex vivo assay using naïve rats.

T1 sequence (P05067 672-713 limits assumed): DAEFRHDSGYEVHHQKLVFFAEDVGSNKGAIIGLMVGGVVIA
T3 sequence (P05067 672-711 limits assumed): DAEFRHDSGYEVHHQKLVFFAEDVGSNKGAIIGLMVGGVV
T2 sequence (P05067 672-713 limits assumed): as the sequence (P05067 672-713 limits assumed) above

## O=Cc1ccc(-c2oc3ccccc3c2CO)o1 [Compound 49b, 2-(2-formyl-5-furanyl)-3-hydroxymethyl benzofuran]
[1]; SPA saturation binding of 3H-49b, isotopic dilution with unlabeled 49b
  Kd: 50 µM
[1]; SPA saturation binding, oligomers
  Bmax: 60-80 nmol/mg beta-amyloid
[1]; from Bmax, oligomers
  molar ratio probe : beta-amyloid: 1 probe: 3-4 beta-amyloid
[2]
  staining of immobilized oligomers: clear staining of oligomers with low background
[3]
  staining of immobilized fibrils: No staining was observed
[4]; 24-month old PDAPP mice, 25 μM probe
  staining of brain sections: punctuate staining pattern that co-localized with beta-amyloid immunoreactivity; also recorded: primarily found in the hippocampus and co-localized with Thioflavin S staining
[4]; 24-month old PDAPP, carbonate extraction buffer to remove soluble material
  staining of carbonate pre-treated brain sections: did not stain
[4]; young (3-month old) PDAPP mice
  staining of brain sections: No staining was observed
